US9498483B2, “2,3,5-trisubstituted thiophene compounds and uses thereof” (priority 2010, dated 2016)

Experiments:
[1] = test system: HCV replicon I389luc-ubi-neo/NS3-3′/ET in ET (Huh-lucubineo-ET) cells; test: Replicon assay (Biological Example 2), luciferase readout; format: cell-based; conditions: Hepatitis C virus
Experimental: A cell line, ET (Huh-lucubineo-ET) was used for screening of compounds for inhibiting HCV RNA dependent RNA polymerase. The ET cell line was stably transfected with RNA transcripts harboring a I389luc-ubi-neo/NS3-3′/ET; replicon with firefly luciferase-ubiquitin-neomycin phosphotransferase fusion protein and EMCV-IRES driven NS3-5B polyprotein containing the cell culture adaptive mutations (E1202G; T12801; K1846T) (Krieger at al, 2001 and unpublished). The ET cells were grown in DMEM (Dulbeco's Modified Eagle's Medium), supplemented with 10% fetal calf serum, 2 mM Glutamine, Penicillin (100 IU/mL)/Streptomycin (100 μg/mL), 1× nonessential amino acids, and 250 μg/mL G418 (“Geneticin”). Reagents were all available through Life Technologies (Bethesda, Md.). The cells were plated at 0.5-1.0×10^4 cells/well in the 96 well plates and incubated for 24 hrs before adding test compound. The compounds were added to the cells to achieve a final concentration of 0.1 nM to 50 μM and a final DMSO (dimethylsulfoxide) concentration of 0.5%. Luciferase activity was measured 48 hours later by adding a lysis buffer and the substrate (Catalog number Glo-lysis buffer E2661 and Bright-Glo luciferase system E2620 Promega, Madison, Wis.). Cells should not be too confluent during the assay. Percent inhibition of replication data was plotted relative to no compound control. To determine the EC50 (effective concentration at which 50% of the maximum inhibition was observed), a 10 point, 3-fold serial dilution for each compound was used, which spans a concentration range of […]. EC50 values were calculated by fitting % inhibition at each concentration to the following equation: % inhibition=100%/[(EC50/[I])^b+1] where b was Hill's coefficient.
In other aspects the EC50 was equal to or less than 10 μM. In still other aspects the EC50 was equal to or less than 1 μM.

HCV polymerase = molecular target: T1, HCV polymerase (Hepatitis C virus genotype 1b, UniProt Q9WMX2); test: Polymerase assay of Biological Example 1 (IC50 values of Table 3); format: biochemical; conditions: IC50 values of Table 3, polymerase assay of Biological Example 1; read-out: NS5B-enzyme3
T1 construct: (His)6 (C); made in house; host or cells: XL-1 cells (E. coli, by own knowledge)
Source text: A number of assays have been published to assess these activities. A general method that assesses the gross increase of HCV virus in culture was disclosed in U.S. Pat. No. 5,738,985 to Miles et al. In vitro assays have been reported in Ferrari et al. Jnl. of Vir., 73:1649-1654, 1999; Ishii et al., Hepatology, 29:1227-1235, 1999; Lohmann et al., Jnl of Bio. Chem., 274:10807-10815, 1999; and Yamashita et al., Jnl. of Bio. Chem., 273:15479-15486, 1998.
WO 97/12033, filed on Sep. 27, 1996, by Emory University, listing C. Hagedorn and A. Reinoldus as inventors, which claims priority to U.S. Provisional Patent Application Ser. No. 60/004,383, filed on September 1995, described an HCV polymerase assay that can be used to evaluate the activity of the of the compounds described herein. Another HCV polymerase assay has been reported by Bartholomeusz, et al., Hepatitis C Virus (HCV) RNA polymerase assay using cloned HCV non-structural proteins; Antiviral Therapy 1996:1 (Supp 4) 18-24.

[2] = ET cells, luciferase activity 48 hours after compound

Row | SMILES | IC50 [1, 2] | IC50 (HCV polymerase) | IC50 ([1]; between 100 nM and 5.0 uM)
1 | COC[C@@H]1CCCN1c1ccc(S(=O)(=O)N2CC(=O)N(c3cc(-c4ccccc4)sc3C(=O)O)[C@H](C3CCCCC3)C2)cn1 [Compound 171, 3-{(R)-2-Cyclohexyl-4-[6-((S)-2-methoxymethyl-pyrrolidin-1-yl)-pyridine-3-sulfonyl]-6-oxo-piperazin-1-yl}-5-phenyl-thiophene-2-carboxylic acid] | ≤ 100 nM | 2 nM | 
2 | CC(C)(C)C#Cc1cc(N2C(=O)CN(S(=O)(=O)c3ccc(OC(F)(F)F)cc3)C[C@H]2C2CCCCC2)c(C(=O)O)s1 [Compound 223, 3-[(R)-2-Cyclohexyl-6-oxo-4-(4-trifluoromethoxy-benzenesulfonyl)-piperazin-1-yl]-5-(3,3-dimethyl-but-1-ynyl)-thiophene-2-carboxylic acid] |  | 9 nM | 100 to 5000 nM
3 | O=C(O)c1sc(-c2ccccc2)cc1N1C(=O)CN(S(=O)(=O)c2ccc(N3CC[C@H](F)C3)nc2)CC1C1CCCCC1 (stereo partly drawn) [Compound 121, 3-{2-Cyclohexyl-4-[6-((S)-3-fluoro-pyrrolidin-1-yl)-pyridine-3-sulfonyl]-6-oxo-piperazin-1-yl}-5-phenyl-thiophene-2-carboxylic acid] | ≤ 100 nM | 7 nM | 
4 | O=C(O)c1sc(-c2ccccc2)cc1N1C(=O)CN(S(=O)(=O)c2cccc3ccccc23)CC1C1CCCCC1 (stereo not shown) [Compound 110, 3-[2-Cyclohexyl-4-(naphthalene-1-sulfonyl)-6-oxo-piperazin-1-yl]-5-phenyl-thiophene-2-carboxylic acid] | ≥ 5000 nM | 183 nM | 
5 | CC(C)(C)C#Cc1cc(N2C(=O)CCC[C@H]2C2CCCCC2)c(C(=O)O)s1 [Compound 35, 3-((S)-2-Cyclohexyl-6-oxo-piperidin-1-yl)-5-(3,3-dimethyl-but-1-ynyl)-thiophene-2-carboxylic acid] | ≤ 100 nM | 9.5 nM | 
6 | CC(C)(C)C#Cc1cc(N2C(=O)C(CCCO)(CCCO)OC[C@H]2C2CCCCC2)c(C(=O)O)s1 [Compound 115, 3-[(R)-5-Cyclohexyl-2,2-bis-(3-hydroxy-propyl)-3-oxo-morpholin-4-yl]-5-(3,3-dimethyl-but-1-ynyl)-thiophene-2-carboxylic acid] |  | 4 nM | 100 to 5000 nM
7 | CC(C)(C)C#Cc1cc(N2C(=O)[C@](C)(CC#N)OC[C@H]2C2CCCCC2)c(C(=O)O)s1 [Compound 312, 3-((2S,5R)-2-Cyanomethyl-5-cyclohexyl-2-methyl-3-oxo-morpholin-4-yl)-5-(3,3-dimethyl-but-1-ynyl)-thiophene-2-carboxylic acid] | ≤ 100 nM | 2 nM | 
8 | O=C(O)c1sc(-c2ccccc2)cc1N1C(=O)CN(S(=O)(=O)c2ccccc2)CC1C1CCCCC1 (stereo not shown) [Compound 52, 3-(4-Benzenesulfonyl-2-cyclohexyl-6-oxo-piperazin-1-yl)-5-phenyl-thiophene-2-carboxylic acid] |  | 15 nM | 100 to 5000 nM
9 | Cc1oc(C)c(S(=O)(=O)N2CC(=O)N(c3cc(-c4ccccc4)sc3C(=O)O)C(C3CCCCC3)C2)c1C(=O)O (stereo not shown) [Compound 33, 4-[4-(2-Carboxy-5-phenyl-thiophen-3-yl)-3-cyclohexyl-5-oxo-piperazine-1-sulfonyl]-2,5-dimethyl-furan-3-carboxylic acid] | ≥ 5000 nM | 38 nM | 
10 | CC(C)(C)C#Cc1cc(N2C(=O)CN(S(=O)(=O)c3c(F)cccc3F)C[C@H]2C2CCCCC2)c(C(=O)O)s1 [Compound 251, 3-[(R)-2-Cyclohexyl-4-(2,6-difluoro-benzenesulfonyl)-6-oxo-piperazin-1-yl]-5-(3,3-dimethyl-but-1-ynyl)-thiophene-2-carboxylic acid] | ≤ 100 nM | 4 nM | 
11 | NCCS(=O)(=O)N1CC(=O)N(c2cc(-c3ccccc3)sc2C(=O)O)C(C2CCCCC2)C1 (stereo not shown) [Compound 47, 3-[4-(2-Amino-ethanesulfonyl)-2-cyclohexyl-6-oxo-piperazin-1-yl]-5-phenyl-thiophene-2-carboxylic acid] | ≥ 5000 nM | 88 nM | 100 to 5000 nM
12 | CC(C)(C)C#Cc1cc(N2C(=O)C(CN3CCOCC3)OC[C@H]2C2CCCCC2)c(C(=O)O)s1 (stereo partly drawn) [Compound 310, 3-((R)-5-Cyclohexyl-2-morpholin-4-ylmethyl-3-oxo-morpholin-4-yl)-5-(3,3-dimethyl-but-1-ynyl)-thiophene-2-carboxylic acid] | ≤ 100 nM | 4 nM | 
13 | O=C(N[C@H]1CC(=O)N(c2cc(-c3ccccc3)sc2C(=O)O)[C@@H](C2CCCCC2)C1)c1ccccc1 [Compound 25, 3-((2R,4R)-4-Benzoylamino-2-cyclohexyl-6-oxo-piperidin-1-yl)-5-phenyl-thiophene-2-carboxylic acid] | ≥ 5000 nM | 173 nM | 
14 | O=C(O)c1sc(-c2ccccc2)cc1N1C(=O)CN(S(=O)(=O)c2ccc(NCCO)nc2)CC1C1CCCCC1 (stereo not shown) [Compound 86, 3-{2-Cyclohexyl-4-[6-(2-hydroxy-ethylamino)-pyridine-3-sulfonyl]-6-oxo-piperazin-1-yl}-5-phenyl-thiophene-2-carboxylic acid] | ≤ 100 nM | 6 nM | 
15 | N#Cc1cccc(S(=O)(=O)N2CC(=O)N(c3cc(-c4ccccc4)sc3C(=O)O)[C@H](C3CCCCC3)C2)c1 [Compound 97, 3-[(R)-4-(3-Cyano-benzenesulfonyl)-2-cyclohexyl-6-oxo-piperazin-1-yl]-5-phenyl-thiophene-2-carboxylic acid] |  | 27 nM | 100 to 5000 nM
16 | O=C(O)c1sc(-c2ccccc2)cc1N1C(=O)CN(S(=O)(=O)Cc2ccccc2)CC1C1CCCCC1 (stereo not shown) [Compound 27, 3-(2-Cyclohexyl-6-oxo-4-phenylmethanesulfonyl-piperazin-1-yl)-5-phenyl-thiophene-2-carboxylic acid] |  | 22 nM | 100 to 5000 nM
17 | COc1ccc(S(=O)(=O)N2CC(=O)N(c3cc(-c4ccccc4)sc3C(=O)O)C(C3CCCCC3)C2)cc1OC (stereo not shown) [Compound 102, 3-[2-Cyclohexyl-4-(3,4-dimethoxy-benzenesulfonyl)-6-oxo-piperazin-1-yl]-5-phenyl-thiophene-2-carboxylic acid] |  | 4.5 nM | 100 to 5000 nM
18 | C[C@H]1CN(c2ccc(S(=O)(=O)N3CC(=O)N(c4cc(-c5ccccc5)sc4C(=O)O)[C@H](C4CCCCC4)C3)cn2)CCN1 [Compound 145, 3-{(R)-2-Cyclohexyl-4-[6-((S)-3-methyl-piperazin-1-yl)-pyridine-3-sulfonyl]-6-oxo-piperazin-1-yl}-5-phenyl-thiophene-2-carboxylic acid] | ≤ 100 nM | 1 nM | 
19 | C[C@@H]1CCCN1c1ccc(S(=O)(=O)N2CC(=O)N(c3cc(-c4ccc(Cl)cc4)sc3C(=O)O)[C@H](C3CCCCC3)C2)cc1 [Compound 234, 5-(4-Chloro-phenyl)-3-{(R)-2-cyclohexyl-4-[4-((R)-2-methyl-pyrrolidin-1-yl)-benzenesulfonyl]-6-oxo-piperazin-1-yl}-thiophene-2-carboxylic acid] | ≤ 100 nM | 1 nM | 
20 | COc1cc(S(=O)(=O)N2CC(=O)N(c3cc(C#CC(C)(C)C)sc3C(=O)O)[C@H](C3CCCCC3)C2)ccc1F [Compound 283, 3-[(R)-2-Cyclohexyl-4-(4-fluoro-3-methoxy-benzenesulfonyl)-6-oxo-piperazin-1-yl]-5-(3,3-dimethyl-but-1-ynyl)-thiophene-2-carboxylic acid] | ≤ 100 nM | 4 nM | 
21 | CC(C)(C)C#Cc1cc(N2C(=O)C(CCCO)OC[C@H]2C2CCCCC2)c(C(=O)O)s1 (stereo partly drawn) [Compound 299, 3-[(R)-5-Cyclohexyl-2-(3-hydroxy-propyl)-3-oxo-morpholin-4-yl]-5-(3,3-dimethyl-but-1-ynyl)-thiophene-2-carboxylic acid] | ≤ 100 nM | 5 nM | 
